The values below come from patent US9624247B2, “Pyrazolo-pyrrolidin-4-one derivatives as bet inhibitors and their use in the treatment of disease” (NOVARTIS AG, priority 2013, dated 2017).

Bounds are passed on as bounds.

For test [1], the target named is BRD2 (His-Brd2(60-472)) (Homo sapiens (Human), UniProt P25440). Kind of test: TR-FRET in-vitro binding assay for BRD2. To be noted: acetyl-histone H4 peptide. (In general: TR-FRET usually uses a lanthanide donor and a delayed reading to cut background.)
Sequence of BRD2 (His-Brd2(60-472)) (P25440 60-472): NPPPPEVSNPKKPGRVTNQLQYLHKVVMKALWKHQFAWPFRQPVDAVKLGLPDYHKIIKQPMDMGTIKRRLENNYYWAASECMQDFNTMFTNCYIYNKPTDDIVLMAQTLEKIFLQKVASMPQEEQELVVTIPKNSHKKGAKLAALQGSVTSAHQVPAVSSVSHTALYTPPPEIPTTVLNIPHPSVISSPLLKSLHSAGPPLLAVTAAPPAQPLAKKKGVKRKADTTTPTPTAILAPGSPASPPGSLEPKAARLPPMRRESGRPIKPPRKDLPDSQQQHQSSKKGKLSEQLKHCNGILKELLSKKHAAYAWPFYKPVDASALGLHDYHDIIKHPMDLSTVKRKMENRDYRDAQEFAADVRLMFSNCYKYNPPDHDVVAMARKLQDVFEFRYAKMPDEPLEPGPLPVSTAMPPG
Test [2] relates to K-562 cells. Kind of test: Cell growth inhibition assay (CellTiter-Glo), K-562. As to conditions: K-562, 4 days; for GI50: Homo sapiens, K562, 96 h, half-maximal growth inhibition; for K-562 TGI: total growth inhibition. The class given is cell-based, human. Put shortly: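 Leukemia cells were exposed for 4 days at 37 °C to 3-fold dilution series from 10 μM (0.1% DMSO), then viable cells were quantified by CellTiter-Glo ATP luminescence. Signal was corrected for background and a day-0 plate, with vehicle set at 100% and medium-only at −100%. IC50 and TGI were obtained by four-parameter fit.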
On the technique in general: In ATP-based viability assays light output follows the ATP content of the culture.

A word on the IC50: it is the point on the concentration scale where inhibition reaches its midpoint. Low values mean inhibition by little substance, high ones a need for much substance. Broadly, the GI50 is the concentration at which growth is held to half of that of the control. Read a high GI50 as lower sensitivity of the cells. As to `Cc1cc(N2C(=O)c3c(C4CC4)nn(C)c3C2c2ccc(Cl)cc2)cn2c(C(F)F)nnc12` (racemic) [Example 3, 6-(4-chlorophenyl)-3-cyclopropyl-5-(3-(difluoromethyl)-8-methyl-[1,2,4]triazolo[4,3-a]pyridin-6-yl)-1-methyl-5,6-dihydropyrrolo[3,4-c]pyrazol-4(1H)-one], the IC50 in test [1] is 13 nM. Also, in test [2], it took 73.5 nM to inhibit growth by half (GI50) and the “K-562 TGI” value is more than 10000 nM.
Taken in the same sequence, the figures for `COCCn1nc(C2CC2)c2c1C(c1ccc(Cl)cc1)N(c1cc(C)c3nnc(C)n3c1)C2=O` (racemic) [Example 4, 6-(4-chlorophenyl)-3-cyclopropyl-5-(3,8-dimethyl-[1,2,4]triazolo[4,3-a]pyridin-6-yl)-1-(2-methoxyethyl)-5,6-dihydropyrrolo[3,4-c]pyrazol-4(1H)-one] were 17 nM, 56.8 nM and more than 10000 nM.
Taken in the same sequence, the figures for `COc1cc(N2C(=O)c3c(C4CC4)nn(C)c3C2c2ccc(Cl)cc2)cn2c(C)nnc12` (racemic) [Example 5, 6-(4-chlorophenyl)-3-cyclopropyl-5-(8-methoxy-3-methyl-[1,2,4]triazolo[4,3-a]pyridin-6-yl)-1-methyl-5,6-dihydropyrrolo[3,4-c]pyrazol-4(1H)-one] were 54 nM, 373 nM and more than 10000 nM.
In turn, `Cc1cc(N2C(=O)c3c(C4CC4)nn(C)c3C2c2ccc(Cl)cc2)cn2c(CF)nnc12` (racemic) [Example 16, 6-(4-chlorophenyl)-3-cyclopropyl-5-(3-(fluoromethyl)-8-methyl-[1,2,4]triazolo[4,3-a]-pyridin-6-yl)-1-methyl-5,6-dihydropyrrolo[3,4-c]pyrazol-4(1H)-one] yielded an IC50 in test [1] of 16 nM. Also, in test [2], halving of growth (GI50) required 122 nM and the “K-562 TGI” value was more than 10000 nM.
On the same counts, the results for `Cc1cc(N2C(=O)c3c(C4CC4)nn(C)c3C2c2ccc(Cl)cc2)cn2c(C)nnc12` (stereo not drawn) [Example 1, 6-(4-chlorophenyl)-3-cyclopropyl-5-(3,8-dimethyl-[1,2,4]triazolo[4,3-a]pyridin-6-yl)-1-methyl-5,6-dihydropyrrolo[3,4-c]pyrazol-4(1H)-one] are 29 nM, 51.9 nM and more than 10000 nM.
On the same counts, the results for `Cc1cc(N2C(=O)c3c(C4CC4)nn(C)c3[C@H]2c2ccc(Cl)cc2)cn2c(C)nnc12` [Example 2, (R)-6-(4-chlorophenyl)-3-cyclopropyl-5-(3,8-dimethyl-[1,2,4]triazolo[4,3-a]pyridin-6-yl)-1-methyl-5,6-dihydropyrrolo[3,4-c]pyrazol-4(1H)-one] are 11 nM, 29.2 nM and more than 10000 nM.
On the same counts, the results for `COc1cc(N2C(=O)c3c(C4CC4)nn(C)c3C2c2ccc(Cl)cc2)cc2c1nnn2C` (stereo not drawn) [Example 6] are 38 nM, 204 nM and more than 10000 nM.
`Cc1cc(N2C(=O)c3c(C4CC4)nn(C)c3[C@H]2c2ccc(Cl)cc2)cn2c(C(F)F)nnc12` [Example 7, (R)-6-(4-chlorophenyl)-3-cyclopropyl-5-(3-(difluoromethyl)-8-methyl-[1,2,4]triazolo-[4,3-a]pyridin-6-yl)-1-methyl-5,6-dihydropyrrolo[3,4-c]pyrazol-4(1H)-one]: the IC50 in test [1] was determined as 13 nM. In addition, in test [2], growth was halved (GI50) at 46.3 nM and the “K-562 TGI” value is more than 10000 nM.
On the same counts, the results for `COCCn1nc(C2CC2)c2c1C(c1ccc(Cl)cc1)N(c1cc(C)c3nnc(CF)n3c1)C2=O` (stereo not drawn) [Example 18, 6-(4-chlorophenyl)-3-cyclopropyl-5-(3-(fluoromethyl)-8-methyl-[1,2,4]triazolo[4,3-a]-pyridin-6-yl)-1-(2-methoxyethyl)-5,6-dihydropyrrolo[3,4-c]pyrazol-4(1H)-one] are 33 nM, 139 nM and more than 10000 nM.
Taken in the same sequence, the figures for `Cc1nnc2c(NC(=O)OC(C)(C)C)cc(N3C(=O)c4c(C5CC5)nn(C)c4C3c3ccc(Cl)cc3)cn12` (stereo not drawn) [Example 27, tert-butyl (6-(6-(4-chlorophenyl)-3-cyclopropyl-1-methyl-4-oxopyrrolo[3,4-c]pyrazol-5(1H,4H,6H)-yl)-3-methyl-[1,2,4]triazolo[4,3-a]pyridin-8-yl)carbamate] were 47 nM, 164 nM and more than 10000 nM.
Taken in the same sequence, the figures for `CCOC(=O)Nc1cc(N2C(=O)c3c(C4CC4)nn(C)c3C2c2ccc(Cl)cc2)cn2c(C)nnc12` (stereo not drawn) [Example 29, ethyl (6-(6-(4-chlorophenyl)-3-cyclopropyl-1-methyl-4-oxopyrrolo[3,4-c]pyrazol-5-(1H,4H,6H)-yl)-3-methyl-[1,2,4]triazolo[4,3-a]pyridin-8-yl)carbamate] were 23 nM, 23.6 nM and more than 10000 nM.
